Our source for the log10cfu, MIC and Activity values is ChEMBL document CHEMBL1143399, “A small-molecule nitroimidazopyran drug candidate for the treatment of tuberculosis” (Nature, 2000).

Series [1] deals with Mycobacterium tuberculosis. Description: Antimicrobial activity against log phase recombinant Mycobacterium tuberculosis H37Rv-lux with plasmid MV361 at 10 ug/ml incubated for 7 days assessed as bacterial count after 4 days. It counts as functional.
For series [2], the system named is Mycobacterium tuberculosis. The series can be described thus: Antimicrobial activity against log phase recombinant Mycobacterium tuberculosis H37Rv-lux with plasmid MV361 at 10 ug/ml incubated for 7 days assessed as bacterial count. Type of series: functional.
Series [3] relates to Mycobacterium tuberculosis. The series can be described thus: Antimycobacterial activity against pan-susceptible Mycobacterium tuberculosis TN1037. Type of series: functional.
For series [4], the system named is Mycobacterium tuberculosis. The series can be described thus: Antimycobacterial activity against pan-susceptible Mycobacterium tuberculosis H37Rv. Type of series: functional.
The subject of series [5] is Mycobacterium tuberculosis. Description: Antimycobacterial activity against pan-susceptible Mycobacterium tuberculosis TN913. Type of series: functional.
Series [6] relates to Mycobacterium tuberculosis. The series can be described thus: Antimycobacterial activity against pan-susceptible Mycobacterium tuberculosis TN1008. It counts as functional.
Series [7] concerns Mycobacterium tuberculosis. Description: Antimycobacterial activity against pan-susceptible Mycobacterium tuberculosis TN1040. Type of series: functional.
Series [8] relates to Mycobacterium tuberculosis. The series can be described thus: Antimycobacterial activity against pan-susceptible Mycobacterium tuberculosis TN1051. Type of series: functional.
Series [9] deals with Mycobacterium tuberculosis. Description: Antimycobacterial activity against pan-susceptible Mycobacterium tuberculosis TN1082. Type of series: functional.
In series [10] the test system is Mycobacterium tuberculosis. The series can be described thus: Antimycobacterial activity against pan-susceptible Mycobacterium tuberculosis TN2351. Type of series: functional.
Series [11] has as its system Mycobacterium tuberculosis. Description: Antimycobacterial activity against pan-susceptible Mycobacterium tuberculosis TN2524. It counts as functional.
For series [12], the system named is Mycobacterium tuberculosis. The series can be described thus: Antimycobacterial activity against pan-susceptible Mycobacterium tuberculosis TN3183. Type of series: functional.
Series [13] relates to Mycobacterium tuberculosis. Description: Antimycobacterial activity against pan-susceptible Mycobacterium tuberculosis TN3979. It counts as functional.
Series [14] deals with Mycobacterium tuberculosis. Description: Antimycobacterial activity against pan-susceptible Mycobacterium tuberculosis TN4259. Type of series: functional.
The subject of series [15] is Mycobacterium tuberculosis. The series can be described thus: Antimycobacterial activity against Mycobacterium tuberculosis clinical isolate IS6110 infected in mouse at 25 mg/kg, po. It counts as functional, organism-based. More on the design: dose 25 mg/kg.
Series [16] concerns Mycobacterium tuberculosis. The series can be described thus: Antimycobacterial activity against Mycobacterium tuberculosis H37Rv with plasmid MH102 infected in BALB/c mouse assessed as reduction in mycobacterial burden in spleen at 25 mg/kg, po daily after 4 days of infection for 10 days relative to isoniazid. It counts as functional, organism-based. More on the design: dose 25 mg/kg.

Series [17] concerns Mycobacterium tuberculosis. The series can be described thus: Antimycobacterial activity against Mycobacterium tuberculosis H37Rv with plasmid MH102 infected in BALB/c mouse assessed as reduction in mycobacterial burden in lung at 25 mg/kg, po daily after 4 days of infection for 10 days relative to isoniazid. Type of series: functional, organism-based. Also on record: dose 25 mg/kg.

Series [18] relates to Mycobacterium tuberculosis. Description: Antimycobacterial activity against Mycobacterium tuberculosis H37Rv with plasmid MH102 infected in BALB/c mouse assessed as reduction in mycobacterial burden in lung at 50 mg/kg, po daily after 4 days of infection for 7 to 60 days relative to isoniazid. More on the design: dose 50 mg/kg. Type of series: functional, organism-based.
Series [19] has as its system Mycobacterium tuberculosis. The series can be described thus: Antimycobacterial activity against Mycobacterium tuberculosis H37Rv with plasmid MH102 infected in BALB/c mouse assessed as reduction in mycobacterial burden in lung at 100 mg/kg, po daily after 4 days of infection for 7 to 60 days relative to isoniazid. Type of series: functional, organism-based. More on the design: dose 100 mg/kg.

In series [20] the test system is Mycobacterium tuberculosis. The series can be described thus: Antimycobacterial activity against Mycobacterium tuberculosis H37Rv ATCC 27294 infected in Hartley guinea pig assessed as reduction in mycobacterial burden in lung at 40 mg/kg, po daily after 30 days of infection for 30 days relative to isoniazid. It counts as functional, organism-based. More on the design: dose 40 mg/kg.

Series [21] concerns Mycobacterium tuberculosis. Description: Antimycobacterial activity against Mycobacterium tuberculosis H37Rv ATCC 27294 infected in Hartley guinea pig assessed as reduction in mycobacterial burden in spleen at 40 mg/kg, po daily after 30 days of infection for 30 days relative to isoniazid. Type of series: functional, organism-based. Also on record: dose 40 mg/kg.
Series [22] deals with Mus musculus. The series can be described thus: Acute toxicity in Mycobacterium tuberculosis H37Rv infected BALB/c mouse at >1000 mg/kg, po single dose. Type of series: organism-based. The following applies: in vivo.
The test system of series [23] is Mus musculus. The series can be described thus: Chronic toxicity in Mycobacterium tuberculosis H37Rv infected BALB/c mouse at >500 mg/kg, po for 28 days. Type of series: organism-based. The following applies: in vivo, 672 h.

≈ marks a conversion by molar mass, not a printed value. Calls of active or inactive are those of the source. The calls are words filed in the database; no cut-off is given here.

With `Cc1ncc([N+](=O)[O-])n1CCO` [METRONIDAZOLE], the figures for the log10cfu in series [1] and in series [2] were 3.2 and 2.8, respectively.
As to `CCC1Cn2cc([N+](=O)[O-])nc2O1` (stereo unspecified), the values for the log10cfu in series [1] and in [2] were 1.5 and 1.8, respectively.
As for `NNC(=O)c1ccncc1` [ISONIAZID], the minimum inhibitory concentration (MIC) in series [3] is 0.03 µg/mL (≈ 0.219 µM); in series [4] it was 0.03 µg/mL (≈ 0.219 µM); in series [5], 0.03 µg/mL (≈ 0.219 µM); in [6], 0.06 µg/mL (≈ 0.438 µM); in series [7], 0.03 µg/mL (≈ 0.219 µM); in [8], 0.03 µg/mL (≈ 0.219 µM). For the same molecule, the minimal inhibitory concentration (MIC) in series [9] was 0.03 µg/mL (≈ 0.219 µM); in series [10], 0.06 µg/mL (≈ 0.438 µM); in [11], 0.06 µg/mL (≈ 0.438 µM); in series [12], 0.03 µg/mL (≈ 0.219 µM); in [13] it was 0.06 µg/mL (≈ 0.438 µM); in series [14], 0.03 µg/mL (≈ 0.219 µM). Also, the log10cfu in [1] stood at 1; in [2], 1.4.
`O=[N+]([O-])c1cn2c(n1)OC[C@@H](OCc1ccc(OC(F)(F)F)cc1)C2` [PRETOMANID]: the outcome in series [15], in series [16], in series [17], in series [18], in series [19] and in series [20] was Active. The outcome in series [21] was Active. The Activity entry in series [22] and in series [23] was “Toxic” in each case. The MIC in series [3] stood at 0.06 µg/mL (≈ 0.167 µM); in series [4], 0.13 µg/mL (≈ 0.362 µM); in [5] it was 0.06 µg/mL (≈ 0.167 µM); in [6], 0.06 µg/mL (≈ 0.167 µM); in [7] it was 0.13 µg/mL (≈ 0.362 µM); in [8] it was 0.06 µg/mL (≈ 0.167 µM). Moreover, the minimum inhibitory concentration (MIC) in [9] is 0.06 µg/mL (≈ 0.167 µM); in [10], 0.06 µg/mL (≈ 0.167 µM); in series [11], 0.25 µg/mL (≈ 0.696 µM); in series [12], 0.015 µg/mL (≈ 0.0418 µM); in series [13], 0.13 µg/mL (≈ 0.362 µM); in series [14] it was 0.06 µg/mL (≈ 0.167 µM). For the same molecule, the log10cfu in series [1] was determined as 3.1; in series [2] it was 3.5.

Usually MIC stands for the lowest concentration found to suppress growth. Read a high MIC as a need for much substance.
